Measurements as given in the supplement of paper PMC11061612.

How the values were obtained:
Assay in all cases: combination Emax (second highest fraction inhibited in the dose matrix, 72 h); higher = more inhibition; extreme values may be limits of the assay
[1] = tested on: ASH-3 (Thyroid Gland Carcinoma)
Procedure, shortened: (§1)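 Cell lines in DMEM/F12 or RPMI with 10% FBS were plated in 1536-well plates, held 24 hours at 37°C, 5% CO2, then given two-drug dose matrices for 72 hours (DMSO typically 0.2%). Viability was read by CellTiter-Glo 2.0 luminescence and scaled as inhibition from 0 (vehicle wells) to 1 (blank wells). Combination Emax is the second-highest inhibition in the matrix; Bliss excess is observed combination effect minus expected EA + EB − EA·EB, EA and EB being single-agent effects.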

[2] = tested on: U-87-MG (Glioblastoma)
Procedure, shortened: as §1

[3] = tested on: NCI-N87 (Gastric Carcinoma)
Procedure, shortened: as §1

[4] = tested on: HC-1 (Other Blood Carcinomas)
Procedure, shortened: as §1

[5] = tested on: NCI-H2347 (Lung Adenocarcinoma)
Procedure, shortened: as §1

[6] = tested on: KU-19-19 (Bladder Carcinoma)
Procedure, shortened: as §1

[7] = tested on: NH-12 (Neuroblastoma)
Procedure, shortened: as §1

[8] = tested on: LOU-NH91 (Squamous Cell Lung Carcinoma)
Procedure, shortened: as §1

[9] = tested on: KYSE-150 (Esophageal Squamous Cell Carcinoma)
Procedure, shortened: as §1

[10] = tested on: NCI-H1573 (Lung Adenocarcinoma)
Procedure, shortened: as §1

[11] = tested on: LC4-1 (B-Lymphoblastic Leukemia)
Procedure, shortened: as §1

[12] = tested on: EW-3 (Ewing's Sarcoma)
Procedure, shortened: as §1

[13] = tested on: JHH-7 (Hepatocellular Carcinoma)
Procedure, shortened: as §1

[14] = tested on: TGBC11TKB (Gastric Carcinoma)
Procedure, shortened: as §1

[15] = tested on: NCI-H513 (Other Solid Carcinomas)
Procedure, shortened: as §1

[16] = tested on: EMC-BAC-2 (Non-Small Cell Lung Carcinoma)
Procedure, shortened: as §1

[17] = tested on: HSC-2 (Oral Cavity Carcinoma)
Procedure, shortened: as §1

[18] = tested on: DG-75 (Burkitt's Lymphoma)
Procedure, shortened: as §1

[19] = tested on: GOTO (Neuroblastoma)
Procedure, shortened: as §1

[20] = tested on: NCI-H322M (Lung Adenocarcinoma)
Procedure, shortened: as §1

SMILES	combination Emax [1]	combination Emax [2]	combination Emax [3]	combination Emax [4]	combination Emax [5]	combination Emax [6]	combination Emax [7]	combination Emax [8]	combination Emax [9]	combination Emax [10]	combination Emax [11]	combination Emax [12]	combination Emax [13]	combination Emax [14]	combination Emax [15]	combination Emax [16]	combination Emax [17]	combination Emax [18]	combination Emax [19]	combination Emax [20]
Cn1cnc2c(F)c(Nc3ccc(Br)cc3Cl)c(C(=O)NOCCO)cc21 [Selumetinib] + C=CCn1c(=O)c2cnc(Nc3ccc(N4CCN(C)CC4)cc3)nc2n1-c1cccc(C(C)(C)O)n1 [AZD1775] (first compound max 10 µM, partner max 1 µM)	0.367	0.252	0.712	0.941	0.468	0.917	0.891	0.423	0.453	0.417	0.874	0.269	0.229	0.912	0.406	0.412	0.372	0.634	0.928	0.861
NC1(C(=O)N[C@@H](CCO)c2ccc(Cl)cc2)CCN(c2ncnc3[nH]ccc23)CC1 [Capivasertib] + COc1nnc2ccc(N3CCC(c4ccc(OCCN5CCN(C)C(=O)[C@H]5C)cc4)CC3)nn12 [AZD5153] (first compound max 10 µM, 7x7, partner max 1 µM)	0.831	0.671	0.772	0.664	0.314	0.746	0.634	0.656	0.796	0.562	0.99	0.837	0.311	0.253	0.416	0.769	0.874	0.884	0.802	0.615
NC1(C(=O)N[C@@H](CCO)c2ccc(Cl)cc2)CCN(c2ncnc3[nH]ccc23)CC1 [Capivasertib] + C[C@@H]1COCCN1C2=NC(=NC(=C2)C3(CC3)[S@](=N)(=O)C)C4=C5C=CNC5=NC=C4 [AZD6738] (first compound max 10 µM, 7x7, partner max 10 µM)	0.697	0.714	0.781	0.749	0.327	0.69	0.832	0.569	0.681	0.618	0.949	0.87	0.39	0.778	0.386	0.728	0.701	0.845	0.948	0.81
NC1(C(=O)N[C@@H](CCO)c2ccc(Cl)cc2)CCN(c2ncnc3[nH]ccc23)CC1 [Capivasertib] + CCN(CCO)CCCOc1ccc2c(Nc3cc(CC(=O)Nc4cccc(F)c4)[nH]n3)ncnc2c1 [AZD2811] (first compound max 10 µM, 7x7, partner max 1 µM)	0.451	0.648	0.73	0.629	0.231	0.515	0.728	0.519	0.536	0.323	0.905	0.595	0.294	0.244	0.19	0.564	0.707	0.606	0.793	0.338
Cc1c2c(nn1C)CSCc1cc(n(C)n1)CSc1cc(c3ccccc3c1)OCCCc1c(C(=O)O)n(C)c3c-2c(Cl)ccc13 [AZD5991] + Cn1cnc2c(F)c(Nc3ccc(Br)cc3Cl)c(C(=O)NOCCO)cc21 [Selumetinib] (first compound max 1 µM, 7x7, partner max 3 µM)	0.368	0.372	0.426	0.402	0.41	0.885	0.568	0.581	0.488	0.586	1	0.549	0.278	0.683	0.473	0.834	0.907	0.112	0.714	0.566
CC1(C)CCC(CN2CCN(c3ccc(C(=O)NS(=O)(=O)c4ccc(NCC5CCOCC5)c([N+](=O)[O-])c4)c(Oc4cnc5[nH]ccc5c4)c3)CC2)=C(c2ccc(Cl)cc2)C1 [Venetoclax] + C[C@@H](Nc1cc(F)cc(F)c1)c1cc(C(=O)N(C)C)cc2c(=O)cc(N3CCOCC3)oc12 [AZD8186] (first compound max 1 µM, 7x7, partner max 3 µM)	0.332	0.44	0.578	0.616	0.189	0.0745	0.612	0.221	0.161	0.162	1	0.736	0.0915	0.203	0.17	0.2	0.92	0.386	0.305	0.237
Cc1c2c(nn1C)CSCc1cc(n(C)n1)CSc1cc(c3ccccc3c1)OCCCc1c(C(=O)O)n(C)c3c-2c(Cl)ccc13 [AZD5991] + C[C@@H](Nc1cc(F)cc(F)c1)c1cc(C(=O)N(C)C)cc2c(=O)cc(N3CCOCC3)oc12 [AZD8186] (first compound max 1 µM, 7x7, partner max 3 µM)	0.46	0.45	0.442	0.534	0.279	0.212	0.313	0.371	0.281	0.318	0.949	0.636	0.169	0.548	0.339	0.632	0.963	0.219	0.654	0.414
COc1cccc(OCCCN)c1-c1cc(Nc2cnc(C#N)cn2)n[nH]1 [Prexasertib] + CCc1c2c(nc3ccc(O)cc13)-c1cc3c(c(=O)n1C2)COC(=O)[C@]3(O)CC [SN-38] (first compound max 1 µM, 7x7, partner max 0.3 µM)	0.989	0.74	0.816	1	0.879	0.959	0.935	0.936	0.966	0.777	0.966	0.838	0.736	0.982	0.695	0.657	0.95	0.957	0.94	0.982
NC1(C(=O)N[C@@H](CCO)c2ccc(Cl)cc2)CCN(c2ncnc3[nH]ccc23)CC1 [Capivasertib] + CC(=O)c1c(C)c2cnc(Nc3ccc(N4CCNCC4)cn3)nc2n(C2CCCC2)c1=O [Palbociclib] (first compound max 10 µM, 7x7, partner max 10 µM)	0.581	0.585	0.76	0.632	0.271	0.536	0.519	0.5	0.644	0.507	0.578	0.414	0.302	0.166	0.368	0.663	0.582	0.744	0.81	0.639
COc1nnc2ccc(N3CCC(c4ccc(OCCN5CCN(C)C(=O)[C@H]5C)cc4)CC3)nn12 [AZD5153] + CC1(C)CCC(CN2CCN(c3ccc(C(=O)NS(=O)(=O)c4ccc(NCC5CCOCC5)c([N+](=O)[O-])c4)c(Oc4cnc5[nH]ccc5c4)c3)CC2)=C(c2ccc(Cl)cc2)C1 [Venetoclax] (first compound max 1 µM, 7x7, partner max 1 µM)	0.718	0.546	0.592	0.557	0.331	0.63	0.737	0.641	0.627	0.356	1	0.751	0.348	0.324	0.358	0.661	0.662	0.887	0.813	0.515
CN(CCO)CC[C@H](CSc1ccccc1)Nc1ccc(S(=O)(=O)NC(=O)c2ccc(N3CCC([C@@H](O)c4ccccc4-c4ccc(Cl)cc4)CC3)cc2)cc1S(=O)(=O)C(F)(F)F [AZD4320] + CN(C)CCCOc1ccc(-c2ccc3ncc4c(c3c2)n(C2CCOCC2)c(=O)n4C)cn1 [AZD0156] (first compound max 1 µM, 7x7, partner max 1 µM)	0.498	0.165	0.477	0.424	0.45	0.098	0.909	0.476	0.206	0.2	1	0.95	0.425	0.258	0.143	0.185	0.269	0.336	0.481	0.172
CN(CCO)CC[C@H](CSc1ccccc1)Nc1ccc(S(=O)(=O)NC(=O)c2ccc(N3CCC([C@@H](O)c4ccccc4-c4ccc(Cl)cc4)CC3)cc2)cc1S(=O)(=O)C(F)(F)F [AZD4320] + Cc1cc2ncnn2cc1Nc1ncc2c(n1)n(C1CCOCC1)c(=O)n2C [AZD7648] (first compound max 1 µM, 7x7, partner max 10 µM)	0.542	0.311	0.544	0.58	0.432	0.119	0.927	0.346	0.478	0.135	1	0.958	0.344	0.237	0.269	0.258	0.461	0.472	0.633	0.254
